Experimental data: US12486259B2, “FXR agonist having pyrazine structure, and preparation method and use” (JIANGSU TASLY DIYI PHARMACEUTICAL CO., LTD., priority 2020, dated 2025)

Columns and labels:
[1] = target: T1, GST-labeled recombinant human FXR protein (Homo sapiens, UniProt Q96RI1); experiment: Agonistic activity on FXR receptor (GST-FXR / SRC-1 bead assay, protein level); assay type: biochemical; settings: for EC50: 0.4 nM FXR, 30 nM SRC-1, protein level; for FXR agonistic activity at protein level (in words): judgement on Table 1 results
T1 construct: purchased Invitroren (so in the source)
T1 sequence (Q96RI1 262-486 limits assumed): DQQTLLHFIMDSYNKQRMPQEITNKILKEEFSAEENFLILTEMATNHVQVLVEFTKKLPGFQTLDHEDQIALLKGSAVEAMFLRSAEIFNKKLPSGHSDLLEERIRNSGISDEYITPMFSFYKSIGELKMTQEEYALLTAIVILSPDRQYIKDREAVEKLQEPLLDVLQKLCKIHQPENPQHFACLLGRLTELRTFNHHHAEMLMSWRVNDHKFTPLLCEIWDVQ
T1 sequence (Q15788 676-700 partner limits assumed): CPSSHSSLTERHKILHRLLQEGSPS
Description: Experimental procedures: FXR (GST-labeled recombinant human FXR protein, manufacturer: Invitroren, Item number: PV4835) and SRC-1 (steroid receptor co-activator-1) are thawed on ice. Three solutions of ABC are prepared by a buffer solution, solution A, 0.4 n M FXR and 30 nM SRC-1; solution B, 10 ug/ml Acceptor Beads; solution C, 10 ug/ml Donor Beads. Solution A is added to the plate at 15 uL per well. It is incubated at room temperature for 1 hour. Solution B is added to the plate at 7.5 uL per well. It is incubated at room temperature for 1 hour. Solution C is added to the plate at 7.5 uL per well. It is incubated at room temperature for 1 hour. It is read from the microplate reader Envision. The data are curve fitted by using Prism 5.0 to calculate the EC50.

in vitro = settings: human; for Papp A→B: Caco-2, Papp A-B; for recovery: Caco-2, Recovery rate A-B
Description: The bi-directional transport of target compounds from apical side (AP) to basolateral side (BL) and from BL side to AP side is studied by using human colon adenocarcinoma cell line Caco-2 monolayer model. The transport parameters, apparent permeability coefficient (Papp) and efflux ratio are calculated by quantitative analysis with high performance liquid chromatography (HPLC).

[2] = system: C57/BL6 mice fed MCD diet; experiment: Pharmacodynamic test in methionine-choline deficient diet (MCD) model of non-alcoholic fatty liver disease; assay type: in vivo; settings: MCD mice, obeticholic acid 40 mpk
Description: Animal strain: C57/BL6, Animal Grade: SPF Grade, Gender: male, Animal Age: 8 weeks old, Animals Received Date: 2018 Sep. 28, Animal Source: Shanghai Lingchang Biotechnology Co. Ltd., Animal Certificate No: SCXK (Shanghai)2013-0018 2013001836799, Mouse feeding Environment: temperature 20-26° C., humidity 40-70%, 12 hour day and night cycle.
5% Solutol HS15/Normal saline: after Solutol HS15 (polyethylene glycol 15 hydroxystearate solubilizer) is dissolved in a water bath at 37° C., 5 ml of it is dissolved in 100 ml of normal saline, thoroughly stirred for later use.
Obeticholic acid/5% Solutol HS15/Normal saline: 0.15 ml Solutol HS15 is added to accurately weighed 12 mg obeticholic acid to fully dissolve it, and 2.85 ml normal saline is added, vigorously mixed and dissolved by the ultrasound. • TM-01 Group/5% Solutol HS15/Normal saline: 2.5 ml of 6 mg/ml TM-01 suspension is taken, 2.5 ml of 5% Solutol HS15/normal saline is added, and the mixture is mixed well. • TM-02 Group/5% Solutol HS15/Normal saline: 2.5 ml of 6 mg/ml TM-02 suspension is taken, 2.5 ml of 5% Solutol HS15/normal saline is added, and the mixture is mixed well. • TM-06 Group/5% Solutol HS15/Normal saline: 2.5 ml of 6 mg/ml TM-06 suspension is taken, 2.5 ml of 5% Solutol HS15/Normal saline is added, and the mixture is mixed well. • TM-09 Group/5% Solutol HS15/Normal saline: 2.5 ml of 6 mg/ml TM-09 suspension is taken, 2.5 ml of 5% Solutol HS15/Normal saline is added, and the mixture is mixed well.
Menstruum and test compounds are administered by gavage at a dose volume of 10 ml/kg;
After reaching the animal house, 70 8-week-old C57/BL6 mice are fed adaptively and randomly divided into 7 groups according to body weight after the average body weight reaches 23 g. They are given the model feed. The first group receives the control diet MCS and the remaining groups receive the MCD diet, while each group of mice receives compound treatment as follows: • Group 1. Control Group: MCS, menstruum, administered once daily by gavage; • Group 2. Model Group: MCD, menstruum, administered once daily by gavage; • Group 3. Obeticholic acid group: MCD, 40 mpk obeticholic acid, administered once daily by gavage; • Group 4. TM-01 Group: MCD, 30 mpk TM-01, administered once daily by gavage; • Group 5. TM-02 Group: MCD, 30 mpk TM-02, administered once daily by gavage; • Group 6. TM-06 Group: MCD, 30 mpk TM-06, administered once daily by gavage; • Group 7. TM-09 Group: MCD, 30 mpk TM-09, administered once daily by gavage; 2.4 Experimental Methods
Body weight and food intake are measured weekly during the experiment. Twenty-one days after administration, tail tips are bled with microcapillaries for AST, ALT measurements. Twenty-eight days after administration, mice are terminated, hearts are bled, and liver tissues are collected and weighed. One portion is snap frozen with liquid nitrogen for subsequent analysis and the other portion are fixed for pathological analysis.
Mouse blood is centrifuged at 5000 rpm for 10 minutes and supernatants are collected for determination of TG (triglycerides), TC (total cholesterol), HDL (high density lipoprotein), LDL (low density lipoprotein), AST (aspartate aminotransferase) and ALT (alanine aminotransferase).
AST and ALT after administration for three and four weeks are determined according to the instructions of kit. The blood lipid index 4 weeks after administration is sent to Adicon Medical Laboratory Co. Ltd. for detection.
The livers are removed from −80° C., homogenized in PBS (phosphate buffered saline), extracted with chloroform methanol organic phase, and subjected to TC and TG assays using the kit, normalized for protein content.
Four weeks after administration, the mice are anesthetized. The heart is bled, the liver is isolated and weighed. The right lobe is snapfrozen with liquid nitrogen and stored at −80° C. for liver lipid analysis. The left lobe is isolated and fixed in 10% formalin for subsequent HE and Sirius Red staining. […]

[3] = blood, 3 weeks, TM 30 mpk, gavage
[4] = blood, 4 weeks, TM 30 mpk, gavage
[5] = blood, after 4 weeks, TM 30 mpk
[6] = liver, after 4 weeks, TM 30 mpk

For O=C(O)c1cccc(N2CC(O)(c3ccc(OCc4c(-c5c(Cl)cccc5Cl)noc4C4CC4)cc3Cl)C2)c1 [Compound M2, reference compound], the EC50 [1] was 1.8 µM and the “FXR agonistic activity at protein level (in words)” value (“FXR agonistic activity” below) [1] was “less active than the compounds of the present invention”.

For COCCc1ccc(OCC(O)CNC(C)C)cc1 (centres unmarked) [Metoprolol, reference compound], the Papp A→B (in vitro) was 18.1 ×10⁻⁶ cm/s, the Papp A→B (in vitro; Average) was 18.1 ×10⁻⁶ cm/s and the Papp A→B (in vitro; Sample-01) was 19.5 ×10⁻⁶ cm/s. The Papp A→B (in vitro; Sample-02) was 16.8 ×10⁻⁶ cm/s, the recovery (in vitro; Average) was 93.8% and the recovery (in vitro; Sample-01) was 93.2%. It also gave a recovery (in vitro; Sample-02) of 94.3%.

In the case of CC(C)(C)NCC(O)COc1cccc2c1CC(O)C(O)C2 (centres unmarked) [Nadolol, reference compound], the Papp A→B (in vitro) is reported as 0.07 ×10⁻⁶ cm/s, the Papp A→B (in vitro; Average) is reported as 0.07 ×10⁻⁶ cm/s and the Papp A→B (in vitro; Sample-01) is reported as 0.07 ×10⁻⁶ cm/s. It also gave a Papp A→B (in vitro; Sample-02) of 0.06 ×10⁻⁶ cm/s, a recovery (in vitro; Average) of 89.8% and a recovery (in vitro; Sample-01) of 91.5%. The recovery (in vitro; Sample-02) was 88%.

Compound OC1(c2cnc(OCc3c(-c4c(Cl)cccc4Cl)noc3C3CC3)cn2)CC(c2cccc(Br)c2)C1 (centres unmarked) [TM-03, 3-(3-bromophenyl)-1-(5-((5-cyclopropyl-3-(2,6-dichlorophenyl)isoxazol-4-yl)methoxy)pyrazine-2-yl) cyclobutanol] has an EC50 [1] of 0.24 µM.

Compound CS(=O)(=O)c1cccc(C2CC(O)(c3cnc(OCc4c(-c5c(Cl)cccc5Cl)noc4C4CC4)cn3)C2)c1 (centres unmarked) [TM-04, 1-(5-((5-cyclopropyl-3-(2,6-dichlorophenyl)isoxazol-4-yl)methoxy)pyrazine-2-yl)-3-(3-(methylsulfonyl)phenyl) cyclobutanol] has an EC50 [1] of 1.35 µM.

For OC1(c2cnc(OCc3c(-c4c(Cl)cccc4Cl)noc3C3CC3)cn2)CC(c2cccc(Sc3ccccc3)c2)C1 (centres unmarked) [TM-05, 1-(5-((5-cyclopropyl-3-(2,6-dichlorophenyl)isoxazol-4-yl)methoxy)pyrazine-2-yl)-3-(3-(phenylthio)phenyl) cyclobutanol], the EC50 [1] was 5.01 µM and the “FXR agonistic activity” value [1] was “poor activity”.

For O=C(O)c1cccc(C2CC(O)(c3cnc(OCc4c(-c5c(Cl)cccc5Cl)noc4-c4ccccc4)cn3)C2)c1 (centres unmarked) [TM-07, 3-(3-(5-(5-phenyl-3-(2,6-dichlorophenyl)isoxazole-4-ylmethoxy)-2-pyrazine)-1-hydroxycyclobutane) benzoic acid], the EC50 [1] was 4.21 µM and the “FXR agonistic activity” value [1] was “poor activity”.

With Cc1cc(C(=O)O)cc(C2CC(O)(c3cnc(OCc4c(-c5c(Cl)cccc5Cl)noc4-c4ccccc4)cn3)C2)c1 (centres unmarked) [TM-10, 3-(3-(5-((3-(2,6-dichlorophenyl)-5-phenylisoxazol-4-yl)methoxy)pyrazine-2-yl)-3-hydroxycyclobutyl)-5-methyl benzoic acid] the EC50 [1] was 5.66 µM and the “FXR agonistic activity” value [1] was “poor activity”.

In the case of CC[C@H]1[C@@H](O)[C@@H]2[C@H](CC[C@]3(C)[C@@H]([C@H](C)CCC(=O)O)CC[C@@H]23)[C@@]2(C)CC[C@@H](O)C[C@@H]12 [obeticholic acid, reference compound], the “Weight, 0 week” value ([2]; 0 week, TM compounds 30 mpk, once daily by gavage) is reported as 23.72 ± 0.46 g, the “Food intake, 1 week” value ([2]; 1 week, TM 30 mpk, gavage) is reported as 2.992 ± 0.396 g and the “Weight, 1 week” value ([2]; 1 week, TM compounds 30 mpk, once daily by gavage) is reported as 21.28 ± 0.42 g. For the same compound, the “Food intake, 2 weeks” value ([2]; 2 weeks, TM 30 mpk, gavage) was 2.945 ± 0.315 g, the “Weight, 2 weeks” value ([2]; 2 weeks, TM compounds 30 mpk, once daily by gavage) was 18.97 ± 0.41 g and the “Food intake, 3 weeks” value ([2]; 3 weeks, TM 30 mpk, gavage) was 2.092 ± 0.320 g. For the same compound, the “Weight, 3 weeks” value ([2]; 3 weeks, TM compounds 30 mpk, once daily by gavage) was 17.60 ± 0.35 g, the “Food intake, 4 weeks” value ([2]; 4 weeks, TM 30 mpk, gavage) was 2.073 ± 0.031 g and the “Weight, 4 week” value ([2]; 4 weeks, TM compounds 30 mpk, once daily by gavage) was 15.72 ± 0.35 g. For the same compound, the liver weight ([2]; after 4 weeks, TM 30 mpk) was 0.90 ± 0.03 g, the liver/body weight ([2]; after 4 weeks, TM 30 mpk) was 5.76 ± 0.26 % and the “ALT, 3 weeks” value [2, 3] was 323.00 ± 37.79 U/L. For the same compound, the “AST, 3 weeks” value [2, 3] was 197.24 ± 21.54 U/L, the “ALT, 4 weeks” value [2, 4] was 93.37 ± 10.36 U/L and the “AST, 4 weeks” value [2, 4] was 126.59 ± 20.25 U/L. For the same compound, the “HDL (blood lipid)” value [2, 5] was 0.55 ± 0.01 mmol/L, the “LDL (blood lipid)” value [2, 5] was 2.80 ± 0.03 mmol/L and the “TC (blood lipid)” value [2, 5] was 0.86 ± 0.04 mmol/L. For the same compound, the “TG (blood lipid)” value [2, 5] was 0.56 ± 0.02 mmol/L, the HE score ([2]; liver pathology score (Table 12 criteria), 4 weeks, TM 30 mpk) was 2.6 and the “Sirius red staining area” value ([2]; liver, 4 weeks, TM 30 mpk) was 0.344 ± 0.057%. It also gave a liver TC [2, 6] of 35.7 ± 3.38 µmol/g protein and a liver TG [2, 6] of 298 ± 36.2 µmol/g protein.
